Data published in PMC6707612, “Cyclic-di-GMP binds to histidine kinase RavS to control RavS-RavR phosphotransfer and regulates the bacterial lifestyle transition between virulence and swimming” (PLoS Pathogens, 2019).

Biological target: T1, RavR^ΔEAL (Xanthomonas campestris pv. campestris, UniProt Q8P9A7)
T1 sequence (Q8P9A7 with tags, fused parts or gaps): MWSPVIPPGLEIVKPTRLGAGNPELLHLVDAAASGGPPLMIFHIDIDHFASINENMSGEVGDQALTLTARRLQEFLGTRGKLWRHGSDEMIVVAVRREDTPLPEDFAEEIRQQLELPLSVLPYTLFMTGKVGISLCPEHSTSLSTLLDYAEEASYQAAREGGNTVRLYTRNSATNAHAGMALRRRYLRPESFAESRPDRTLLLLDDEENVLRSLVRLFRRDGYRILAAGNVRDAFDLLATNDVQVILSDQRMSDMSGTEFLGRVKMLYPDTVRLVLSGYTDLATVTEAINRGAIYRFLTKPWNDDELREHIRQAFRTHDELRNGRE
Assay: microscale thermophoresis (MST) binding
Settings: 20 nM fluorescein-labelled nucleotide

Compound: Nc1nc2c(ncn2[C@@H]2O[C@@H]3COP(=O)(O)O[C@H]4[C@@H](O)[C@H](n5cnc6c(=O)[nH]c(N)nc65)O[C@@H]4COP(=O)(O)O[C@H]3[C@H]2O)c(=O)[nH]1 [c-di-GMP, Cyclic di-GMP]
- dissociation constant (Kd): did not bind
